Among the data in PubChem BioAssay (NCI) are TGI and GI50 values, retold here.

Among the test systems are MDA-N; MCF7 breast; HL-60(TB) leukemia; MOLT-4 leukemia; EKVX NSCLC; NCI/ADR-RES ovarian; SNB-75 CNS; PC-3 prostate; M14 melanoma; HOP-92 NSCLC; HCT-15 colon; A498 renal; OVCAR-4 ovarian; RPMI-8226 leukemia; CCRF-CEM leukemia.
What all share (test): inhibition of tumour cell growth, NCI panel, 48 h

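Compound exposure: 48 hours, 5 concentrations, 96-well plates. GI50 marks 50% less growth. TGI is the concentration that stops growth completely.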 A value given as a limit tells only on which side of the number the result lay.

With `COc1cc2c3cc1Oc1c(OC)c(OC)cc4c1C(Cc1ccc(O)c(c1)-c1cc(ccc1OC)CC3N(C)CC2)N(C)CC4` (stereo not drawn), the TGI was 30.6 µM in the assay with MDA-N; 49 µM in the assay with MCF7 breast; 15.4 µM with HL-60(TB) leukemia; 74.2 µM in the assay on MOLT-4 leukemia; 91.1 µM in the assay on EKVX NSCLC; 73.9 µM in the assay on NCI/ADR-RES ovarian. The TGI in the assay on SNB-75 CNS is 39.6 µM; in the assay on PC-3 prostate, more than 100 µM; in the assay with M14 melanoma, 15.5 µM; in the assay with HOP-92 NSCLC, 53.7 µM; in the assay on HCT-15 colon it was 25.4 µM; in the assay on A498 renal, 46.3 µM. The compound further came in with a TGI in the assay on OVCAR-4 ovarian of more than 100 µM.
For `COc1ccc2c(c1)C(=O)[C@@](Nc1ccc(C=O)cc1)(OC)[C@@](OC)(c1ccc([N+](=O)[O-])cc1)O2`, the TGI in the assay on RPMI-8226 leukemia, in the assay with MDA-N, with CCRF-CEM leukemia, with MCF7 breast, in the assay on HL-60(TB) leukemia and in the assay on MOLT-4 leukemia was more than 10 µM each time. Also, the TGI with EKVX NSCLC, in the assay on NCI/ADR-RES ovarian, in the assay on SNB-75 CNS, with PC-3 prostate, in the assay with M14 melanoma and in the assay on HCT-15 colon was more than 10 µM each time. Moreover, the TGI in the assay with A498 renal and with OVCAR-4 ovarian was more than 10 µM throughout.
Consider `Cc1ccc2c(=O)c(C(=O)NNC(=S)NC3CCCCC3)c[nH]c2n1`, for which the TGI with RPMI-8226 leukemia, in the assay on MDA-N, with CCRF-CEM leukemia, in the assay with MCF7 breast, in the assay with HL-60(TB) leukemia and in the assay on MOLT-4 leukemia was more than 100 µM each time. Further, the TGI in the assay on EKVX NSCLC, in the assay on NCI/ADR-RES ovarian, with PC-3 prostate, with M14 melanoma, in the assay on HCT-15 colon and with A498 renal was more than 100 µM throughout. In the assay with OVCAR-4 ovarian, this compound came in with a TGI of more than 100 µM.
On to `Brc1ccc(C2CC3(c4ccccc4)ON=C(c4ccccc4)N3c3ccccc3S2)cc1` (stereo not drawn), for which the TGI in the assay on MDA-N, in the assay with CCRF-CEM leukemia, in the assay on MCF7 breast, in the assay on HL-60(TB) leukemia, in the assay with MOLT-4 leukemia and in the assay on EKVX NSCLC was more than 100 µM each time. Besides, the TGI with NCI/ADR-RES ovarian, in the assay with SNB-75 CNS, with PC-3 prostate, in the assay on M14 melanoma, in the assay on HOP-92 NSCLC and in the assay on HCT-15 colon was more than 100 µM each time. Besides, the TGI in the assay with A498 renal and in the assay with OVCAR-4 ovarian was more than 100 µM throughout.
For `CCOC(OCC)[C@H](N)[C@@H](O)[C@@H](O)[C@H]1COC(C)(C)O1`, the TGI in the assay with RPMI-8226 leukemia, with MDA-N, in the assay with CCRF-CEM leukemia, in the assay with MCF7 breast, in the assay on MOLT-4 leukemia and in the assay with EKVX NSCLC was more than 100 µM throughout. Besides, the TGI in the assay on NCI/ADR-RES ovarian, in the assay with SNB-75 CNS, in the assay with PC-3 prostate, with M14 melanoma, in the assay on HCT-15 colon and in the assay on A498 renal was more than 100 µM each time. This compound gave a TGI in the assay with OVCAR-4 ovarian of more than 100 µM.
In the case of `C(#C[C@@]12CCC[C@@H]1N(Cc1ccccc1)CO2)c1ccc2c(c1)OCO2`, the TGI in the assay on RPMI-8226 leukemia, in the assay with MDA-N, in the assay on CCRF-CEM leukemia, in the assay with MCF7 breast, in the assay with MOLT-4 leukemia and with EKVX NSCLC was more than 100 µM throughout. Also, the TGI with NCI/ADR-RES ovarian, in the assay with SNB-75 CNS, with PC-3 prostate, with M14 melanoma, in the assay on HCT-15 colon and in the assay on A498 renal was more than 100 µM throughout. The compound also yielded a TGI with OVCAR-4 ovarian of more than 100 µM.
Take `O=C1c2cc([N+](=O)[O-])sc2C(=O)c2cc([N+](=O)[O-])sc21`: the TGI in the assay on MDA-N was 4.72 µM; in the assay on CCRF-CEM leukemia it was more than 19.8 µM; with MCF7 breast, 9.92 µM; with MOLT-4 leukemia, more than 22.7 µM; with EKVX NSCLC, 7.78 µM; with NCI/ADR-RES ovarian, 11.3 µM. In addition, the TGI in the assay with SNB-75 CNS was found to be 26.3 µM; in the assay with PC-3 prostate it was 15.9 µM; in the assay with M14 melanoma it was 9.25 µM; with HOP-92 NSCLC it was 4.04 µM; with HCT-15 colon, 3.55 µM; in the assay with A498 renal, 32.7 µM. In the assay on OVCAR-4 ovarian, the TGI came out at 8.71 µM.
For the compound `S=C(S)N1CCN(c2ccccc2)CC1`, the TGI is 77.3 µM in the assay with RPMI-8226 leukemia; more than 100 µM with MDA-N; more than 100 µM in the assay with MCF7 breast; 64.4 µM in the assay with HL-60(TB) leukemia; more than 100 µM in the assay on EKVX NSCLC; more than 100 µM in the assay with NCI/ADR-RES ovarian. For the same compound, the TGI in the assay on SNB-75 CNS, in the assay with PC-3 prostate, in the assay on M14 melanoma, with HOP-92 NSCLC, in the assay with HCT-15 colon and in the assay on A498 renal was more than 100 µM throughout.
Take `O=C1CSC(c2cccc(Oc3ccccc3)c2)N1c1cccc(Cl)c1Cl` (stereo not drawn): the TGI with MDA-N was 58.7 µM; in the assay with CCRF-CEM leukemia, more than 100 µM; in the assay with MCF7 breast, 32.8 µM; with HL-60(TB) leukemia, 70.2 µM; in the assay with MOLT-4 leukemia it was 55.7 µM; in the assay on EKVX NSCLC, 99.3 µM. Further, the TGI in the assay on NCI/ADR-RES ovarian was 59.9 µM; in the assay on SNB-75 CNS, more than 100 µM; in the assay on PC-3 prostate, 95.3 µM; in the assay with M14 melanoma, more than 100 µM; with HOP-92 NSCLC, 45.8 µM; in the assay on HCT-15 colon, 46.8 µM. Moreover, the TGI with A498 renal is 93.5 µM; with OVCAR-4 ovarian, more than 100 µM.
As to `COc1ccc(S(=O)(=O)Nc2ccc(-c3csc(N4C(=O)/C(=C/c5cccs5)N=C4c4ccccc4)n3)cc2)cc1Cl`, the TGI was more than 100 µM in the assay on MDA-N; more than 100 µM in the assay on MCF7 breast; 87.4 µM in the assay on HL-60(TB) leukemia; more than 100 µM with MOLT-4 leukemia; more than 100 µM in the assay with NCI/ADR-RES ovarian; more than 100 µM in the assay with SNB-75 CNS. Further, the TGI with PC-3 prostate is more than 100 µM; in the assay with M14 melanoma, more than 100 µM; with HOP-92 NSCLC, 72 µM; with HCT-15 colon, 70.6 µM; in the assay with A498 renal, 65.2 µM; with OVCAR-4 ovarian, more than 100 µM.
Turning to `Fc1cc2nc3n(c2cc1F)C(c1c(Cl)cccc1Cl)SC3` (stereo not drawn), the TGI in the assay with RPMI-8226 leukemia is 36.5 µM; in the assay with MDA-N, 29.5 µM; in the assay on MCF7 breast, 33.1 µM; in the assay with HL-60(TB) leukemia it was 70.9 µM; with MOLT-4 leukemia it was more than 100 µM; in the assay with EKVX NSCLC, 32.5 µM. Moreover, the TGI turned out to be 37.7 µM in the assay on NCI/ADR-RES ovarian; 26.8 µM with SNB-75 CNS; 31.3 µM in the assay on PC-3 prostate; 29 µM with M14 melanoma; 30.8 µM with HOP-92 NSCLC; 36.7 µM in the assay with HCT-15 colon. The results for the TGI with A498 renal and in the assay with OVCAR-4 ovarian were 34.6 µM and 30.1 µM, respectively.
Turning to `C=COC(=O)N1C2CCCC(Cl)(C(C)=O)C1CC2` (stereo not drawn), the TGI with RPMI-8226 leukemia, in the assay on MDA-N, in the assay on CCRF-CEM leukemia, with MCF7 breast, in the assay with MOLT-4 leukemia and in the assay on EKVX NSCLC was more than 100 µM in each case. Moreover, the TGI with NCI/ADR-RES ovarian, with SNB-75 CNS, in the assay on PC-3 prostate, in the assay on M14 melanoma, in the assay on HOP-92 NSCLC and in the assay on HCT-15 colon was more than 100 µM throughout. The TGI in the assay on A498 renal and in the assay on OVCAR-4 ovarian was more than 100 µM throughout.
On to `COc1ccc(NC(=O)CC(=O)N2N=C(C)C(N=Nc3ccc(C(=O)O)cc3)C2=O)cc1` (stereo not drawn), for which the TGI with MDA-N, in the assay with CCRF-CEM leukemia, with MCF7 breast, in the assay with HL-60(TB) leukemia, in the assay with EKVX NSCLC and in the assay on NCI/ADR-RES ovarian was more than 100 µM throughout. Besides, the TGI in the assay with SNB-75 CNS, in the assay on PC-3 prostate, with M14 melanoma, with HOP-92 NSCLC, in the assay with HCT-15 colon and with A498 renal was more than 100 µM in each case. The TGI with OVCAR-4 ovarian is more than 100 µM.
`CCOC(=O)/C=C(/C(=O)OCC)n1ccc(=O)n(CC(=O)OCC)c1=O`: the results for the GI50 in the assay on RPMI-8226 leukemia and with HL-60(TB) leukemia were 1.77 µM and 0.191 µM, respectively. The TGI with RPMI-8226 leukemia was found to be 4.35 µM; in the assay with MDA-N it was 8.31 µM; in the assay on MCF7 breast it was 1.84 µM; in the assay with HL-60(TB) leukemia it was 0.483 µM; in the assay with EKVX NSCLC, 4.87 µM; with NCI/ADR-RES ovarian, 8.14 µM. Further, the TGI was 7.92 µM in the assay with SNB-75 CNS; 3.22 µM with PC-3 prostate; 2.73 µM with M14 melanoma; 1.46 µM with HOP-92 NSCLC; 1.84 µM with HCT-15 colon; 28 µM in the assay on A498 renal.
On to `Nc1ncnc2c1cnn2COCC(O)CO` (stereo not drawn), for which the TGI in the assay with RPMI-8226 leukemia, with MDA-N, in the assay on CCRF-CEM leukemia, with MCF7 breast, in the assay on MOLT-4 leukemia and in the assay with EKVX NSCLC was more than 100 µM in each case. In addition, the TGI with NCI/ADR-RES ovarian, with PC-3 prostate, in the assay on M14 melanoma, in the assay with HOP-92 NSCLC, in the assay on HCT-15 colon and with A498 renal was more than 100 µM in each case. This compound returned a TGI in the assay with OVCAR-4 ovarian of more than 100 µM.
For `CN(C)c1c(C2CC(O)C(CO)O2)c(=O)c1=O` (stereo not drawn), the TGI in the assay on RPMI-8226 leukemia, in the assay on MDA-N, in the assay on MCF7 breast, in the assay with HL-60(TB) leukemia, with MOLT-4 leukemia and with EKVX NSCLC was more than 100 µM each time. Besides, the TGI in the assay with NCI/ADR-RES ovarian, in the assay on SNB-75 CNS, in the assay with PC-3 prostate, in the assay on M14 melanoma, in the assay with HOP-92 NSCLC and in the assay with HCT-15 colon was more than 100 µM each time. The TGI in the assay on A498 renal and with OVCAR-4 ovarian was more than 100 µM in each case.
